How the values were obtained:
Format in all cases: cell-based, human
[1] = system: ferritin-H subunit synthesis in astrocytoma (U373MG) cells; assay: Ferritin-H subunit synthesis, astrocytoma cells; conditions: 0.5 ng/ml, 16 hrs
Experimental: Primary human astrocytes were prepared by trypsinization of human fetal brain tissue by a previously described method (Das, et al., Neuron 14; 447 (1995)). Cells were seeded onto poly-L-lysine (10 μg/ml) coated plates and were grown to 70% confluence in DMEM medium, (low glucose) supplemented with 10% fetal bovine serum. In order to eliminate microglia, the cultures were treated with 5 mM H-Leu-O-methylester (Guilian, J. Neurosci. Res. 18:155 (1987)). For immunofluorescence, cells were replated at a density of 100,000 cells per 60-mm petri dish on poly-L-lysine coated glass coverslips and grown for 24 hours in 0.5 ml of medium to allow the cells to attach. The presence of glial fibrillary acidic protein (GFAP) was detected by immunofluorescent staining of formaldehyde fixed cells using a 1:10 dilution of rabbit IgG1 antibody specific for human GFAP. Primary GFAP-specific antibody was added to the coverslips for 30 minutes at room temperature in phosphate buffered saline and 10% goat serum. The secondary antibodies used were goat anti-rabbit IgG conjugated to fluorescein isothiocyanate at a dilution of 1:100 (Boehringer). Fluorescence microscopy scored the cells used in the metabolic experiments as 95% pure astrocytes. […] The U373MG astrocytoma cell line was cultured on 100 mm uncoated dishes to 60-80% confluence in DMEM medium supplemented with 10% fetal bovine serum. […]

[2] = system: ACT-mRNA; assay: Northern blot of ACT-mRNA, astrocytoma cells; conditions: Northern blot, 16 hours stimulation
Experimental: Total RNA (10 μg) was extracted from primary astrocytes and astrocytoma cells with a RNA-STAT kit (Tel-Test). RNA samples were denatured in 50% formamide/2.2 M formaldehyde/20 mM MOPS/5 mM sodium acetate/0.5 mM EDTA, pH 7.4, at 60° C. for 10 minutes, electrophoresed on 1.0% agarose-formaldehyde gels, blotted onto Hybond-N filters and immobilized by UV crosslinking and heating filters to 80° C. Filters were prehybridized for 3 hours and hybridized overnight in a solution consisting of 50% formamide, […] denatured salmon sperm DNA, 5×SSC, 0.1% sodium dodecyl sulfate and 5×Denhardt's solution. Following hybridization, filters were washed twice for a total of 1 hour in 2×SSC/0.2% sodium dodecyl sulfate at room temperature and twice each for a total of 1 hour in 0.5×SSC/0.1% sodium dodecyl sulfate at 55° C. Equal loading was verified by ethidium bromide staining, non-specific hybridization of the ACT probe to the 28S rRNA, and by standardized hybridization to the GAPDH cDNA probe as an internal standard. The APP cDNA probe corresponded to the unique internal 1 kb fragment gel purified from the 3 kb APP cDNA (Kang et al. Nature 325: 733 (1987)), the ACT cRNA probe to a PstI/SacI fragment (536-943) in the human ACT cDNA (Chandra, et al., Biochemistry 22: 5055 (1983)) and the GAPDH probe to the human GAPDH gene (Tokunaga, et al., Cancer Res. 47: 5616 (1987)).

[3] = system: APP/CAT mRNA; assay: RNase protection of APP/CAT mRNA in pSV2(APP)CAT-transfected astrocytoma cells; conditions: 16 hours stimulation
Experimental: Cells were lysed in 2 ml of a buffer containing 4 M guanidinium thiocyanate, 25 mM NaOac, pH 6.0, 100 mm β-mercaptoethanol. RNA was prepared after shearing the DNA and centrifuging the lysate at 31K, 23° C. for 12 hours through 5 ml of 5.7 M CsCl2 cushion. This procedure ensured that CAT mRNAs and endogenous ferritin mRNAs were purified as a pellet without contamination from plasmid DNA containing transfected CAT gene sequences. The RNA pellet was resuspended in TES buffer (10 mM Tris, pH 7.6, 1 mM EDTA, 0.5% SDS) and was extracted with an equal volume of phenol/chloroform, ethanol-precipitated and resuspended in TES buffer.
Steady-state levels of transfected CAT mRNA from astrocytoma and neuroblastoma pSV2(APP)(CAT) transfectants was characterized by RNase protection. A 261 nucleotide ^32P-labeled cRNA was transcribed from a HindIII digested DNA template isolated from the CAT gene in the pSV2CAT subclone (Rogers, et al., Nucl. Acid Res. 22: 2678 (1994); Campbell, et al., Biochem. Biophys. Res. Commun. 160: 453 (1989); Fahmy, et al., Biochem. J. 296; 175 (1993)). Labeled cRNA, antisense to the CAT gene, was hybridized to 20 μg of mRNA purified from pSV2(APP)(CAT) transfectants of astrocytoma cells. […] Kinase labeled HaeIII-digested X-174 DNA fragments were used as DNA markers for autoradiography and quantitation of CAT mRNA levels.

**Q.** For interleukin-1α [IL-1α], which “enhanced rate of ferritin-H subunit synthesis” value [1] is on record?
**A.** The value was 5 fold.

**Q.** And the “ACT mRNA transcriptional change” value [2]?
**A.** The value was “large transcriptional increase”.

**Q.** What about the “decrease of steady-state level of CAT mRNA” value ([3]; pSV2(APP)CAT transfectants, two separate transfections) of the same substance?
**A.** The value was 50%.

**Q.** How did the “enhanced rate of ferritin-H subunit synthesis” value [1] turn out when interleukin-1β [IL-1β] was run?
**A.** Its value is 5 fold.

**Q.** What about the “ACT mRNA transcriptional change” value [2] of the same substance?
**A.** The value was “large transcriptional increase”.

**Q.** And the “increase of steady-state APP/CAT mRNA level relative to unstimulated cells” value ([3]; pSV2(APP)CAT transfected astrocytoma cells)?
**A.** Its value is 30%.
